Consider two molecules from patent US9200071B2, “Methods of treating cancer using Notch1 and Notch3 antagonists” (Genentech, Inc., priority 2009, dated 2015).

What all share (format): cell-based, human
In assay [1] the test system is P-12 Ichikawa cell line. The assay is described as follows: Cell diameter measurement (Vi-Cell cell counter). The note with it: approximately one week; DAPT 5 μM, anti-NRR1 5 μg/ml; FIG. 6. On the procedure: (§1) The P-12 Ichikawa cell line, the HPB-ALL cell line, and the TALL-1 cell line were grown for approximately one week in control conditions (DMSO alone (the vehicle for DAPT) or anti-gD (an isotype control antibody)); in the presence of the gamma-secretase inhibitor, DAPT (5 μM); or in the presence of anti-NRR1 (5 μg/ml). Cell diameter was measured using a cell counter (Vi-Cell, Beckman Coulter). Consistent with the growth inhibition studies, the P-12 Ichikawa line is resistant to both DAPT and anti-NRR1, as indicated by relatively consistent cell diameter among treated and control cells.

Assay [2] deals with TALL-1 cell line. The assay is described as follows: Cell diameter measurement (Vi-Cell cell counter). The note with it: approximately one week; DAPT 5 μM, anti-NRR1 5 μg/ml; FIG. 6. The procedure: as §1
Assay [3] has as its system HPB-ALL cell line. The assay is described as follows: Cell diameter measurement (Vi-Cell cell counter). The note with it: approximately one week; DAPT 5 μM, anti-NRR1 5 μg/ml; FIG. 6. On the procedure: as §1
Assay [4] concerns P-12 Ichikawa cell line. The assay is described as follows: Cell cycle status by propidium iodide FACS (growth sensitivity). The note with it: eight days; DAPT 5 μM, anti-NRR1 5 μg/ml; FIG. 3A-3D. The procedure: (§2) FIGS. 3-5 presents the classification of three representative human T-ALL cell lines. Those cell lines include the P-12 Ichikawa cell line, the HPB-ALL cell line, and the TALL-1 cell line. The cells were grown for eight days in control conditions (DMSO alone (the vehicle for DAPT) or anti-gD (an isotype control antibody)); in the presence of the gamma-secretase inhibitor, DAPT (5 μM); or in the presence of anti-NRR1 (5 μg/ml). The cells were fixed, stained with propidium iodide and prepared for FACS to analyze the cell cycle status, according to standard procedures. […] HPB-ALL cells are sensitive to both DAPT and anti-NRR1 (FIG. 4A-4D), with DAPT- and anti-NRR1-treated cells showing about 78% and 76% of cells in G0/G1, respectively, compared to about 33-34% of the control cells. TALL-1 cells are sensitive to DAPT but resistant to anti-NRR1 (FIG. 5A-5D), with about 87% of DAPT-treated cells in G0/G1, compared to about 55% of anti-NRR1-treated cells and about 53-54% of control cells. It is noted that Notch1 is not mutated in TALL-1 cells. […] (Data not shown and FIG. 10.)

Assay [5] has as its system P-12 Ichikawa cell line. In words: Cell proliferation assay by Ki-67 staining FACS. The note with it: approximately one week; DAPT 5 μM, anti-NRR1 5 μg/ml; FIG. 8 left panel. The procedure: (§3) The P-12 Ichikawa cell line, the HPB-ALL cell line, and the TALL-1 cell line were treated as described above for FIG. 6. The cells were analyzed by FACS using Ki-67 staining to mark proliferation (left panel). A shift in the FACS peak to the left indicates lower staining for Ki-67 and decreased proliferation, and conversely, a shift in the FACS peak to the right indicates higher staining for Ki-67 and increased proliferation. Based on this proliferation assay, HPB-ALL was sensitive to both DAPT and anti-NRR1, TALL-1 was sensitive to DAPT but not anti-NRR1, and P-12 Ichikawa cells were resistant to both. […] Low cell counts (i.e., low numbers of Annexin V/7-AAD double negative (non-apoptotic) cells) indicate increased apoptosis, which in turn correlate with decreased proliferation in the left hand panel.

For assay [6], the system named is TALL-1 cell line. The assay is described as follows: Cell proliferation assay by Ki-67 staining FACS. The note with it: approximately one week; DAPT 5 μM, anti-NRR1 5 μg/ml; FIG. 8 left panel. The procedure: as §3
In assay [7] the test system is HPB-ALL cell line. The assay is described as follows: Cell proliferation assay by Ki-67 staining FACS. The note with it: approximately one week; DAPT 5 μM, anti-NRR1 5 μg/ml; FIG. 8 left panel. The procedure:
as §3

In assay [8] the test system is activated Notch1 in HPB-ALL cells. The assay is described as follows: Immunoblot of nuclear fractions with anti-Notch1 Val1744. The note with it: FIG. 13 upper panel. An excerpt: (§4) This new anti-Notch3 ICD antibody was then used to investigate the activation status of Notch3 in the three classes of T-ALL. […] 3T3 cells expressing Notch1 (3T3-N1) and MDA-MB-468 (MB468) cells were used as controls. Consistent with the growth inhibition studies described in the previous figures, TALL-1 expresses high levels of activated Notch3 but not activated Notch1 (compare TALL-1 lanes in lower and upper panels, respectively). Furthermore, production of activated Notch3 in TALL-1 could be blocked by DAPT but not anti-NRR1 (lower panel). Moreover, as expected, HPB-ALL cells express high levels of activated Notch1, which can be blocked by DAPT or anti-NRR1 antibody (see HPB-ALL lanes in upper panel). As to the controls, activated Notch1 is seen as a lighter, up-shifted band in the 3T3-N1 cells treated with Jagged (+jag) (upper panel).

The test system of assay [9] is CCRF-CEM cells. The assay is described as follows: Cell cycle status by propidium iodide FACS (growth sensitivity). The note with it: eight days; DAPT 5 μM, anti-NRR1 5 μg/ml, anti-NRR3 10 μg/ml; FIG. 10A-10F. On the procedure: as §2
(§5) As described above, two of the three classes of T-ALL, represented by HPB-ALL and TALL-1, are both sensitive to GSI but differ in that the former is sensitive to anti-NRR1, whereas the latter is not. […] To address this question, CCRF-CEM cells, HPB-ALL cells, and TALL-1 cells were treated as described for FIGS. 3-5, except that a Notch3-specific antagonist was also included at 10 μg/ml in a subset of the treatments to test whether growth depended on Notch3 signaling. The Notch3-specific antagonist used in these studies was mouse anti-human Notch3 monoclonal antibody 256A-4, the isolation and characterization of which are discussed in U.S. Patent Application Publication No. US 2008/0226621 A1. For convenience, 256A-4 is referred to herein as “anti-NRR3,” and is also referred to as “α-N3” in the figures.

Assay [10] has as its system TALL-1 cell line. Described as above. The note with it: eight days, DAPT 5 μM, anti-NRR1 5 μg/ml; for percentage of cells in G0/G1: control cells about 53-54%. On the procedure: as §2, §5
Assay [11] deals with HPB-ALL cell line. Described as above. The note with it: eight days, DAPT 5 μM, anti-NRR1 5 μg/ml. The procedure:
as §2, §5

Assay [12] has as its system P-12 Ichikawa cell line. In words: Apoptosis by Annexin V / 7-AAD FACS. The note with it: approximately one week; DAPT 5 μM, anti-NRR1 5 μg/ml; FIG. 7. On the procedure:
(§6) The P-12 Ichikawa cell line, the HPB-ALL cell line, and the TALL-1 cell line were treated as described above for FIG. 6. The cells were analyzed by FACS, with staining for 7-AAD (cell death marker) on the x-axis of FIG. 7, and staining for Annexin V (marker for apoptosis) on the y-axis of FIG. 7. […] In contrast, P-12 Ichikawa cells are resistant to both treatments, whereas TALL-1 cells are sensitive to DAPT but not to anti-NRR1.

Assay [13] relates to TALL-1 cell line. In words: Apoptosis by Annexin V / 7-AAD FACS. The note with it: approximately one week; DAPT 5 μM, anti-NRR1 5 μg/ml; FIG. 7. On the procedure:
as §6

The subject of assay [14] is HPB-ALL cell line. In words: Apoptosis by Annexin V / 7-AAD FACS. The note with it: approximately one week; DAPT 5 μM, anti-NRR1 5 μg/ml; FIG. 7. On the procedure:
as §6

In assay [15] the test system is activated Notch3 in TALL-1. The assay is described as follows: Immunoblot of nuclear fractions with anti-Notch3 ICD antibody. The note with it: TALL-1 nuclear fractions; FIG. 13 lower panel.
Excerpt: as §4

For assay [16], the system named is activated Notch3 in MDA-MB-468 cells. In words: Immunoblot of MDA-MB-468 cells treated with anti-Notch3 agonist antibody. The note with it: in the absence of DAPT, FIG. 13 lower panel.
Excerpt: as §4

Where [17] appears, read: anti-NRR3 10 μg/ml, FIG. 11A-11F.

`C[C@H](NC(=O)Cc1cc(F)cc(F)c1)C(=O)N[C@H](C(=O)OC(C)(C)C)c1ccccc1` [DAPT, N—[N-(3,5-difluorophenacetyl)-L-alanyl]-S-phenylglycine t-butyl ester]: the “cell diameter (cell size) versus control” value is reported as “resistant” in assay [1], “significantly smaller size” in assay [2] and “significantly smaller size” in [3]. Moreover, the “growth sensitivity (cell cycle status)” value in assay [4] is listed as “resistant”; in assay [9], “resistant”; in [10] (FIG. 5A-5D) it was “sensitive”; in [11] (setting [17]), “sensitive”; in assay [11] (FIG. 4A-4D), “sensitive”. Moreover, the “proliferation (Ki-67 staining)” value in assay [5] is listed as “resistant”; in assay [6], “sensitive”; in assay [7], “sensitive”. The “activated Notch1 levels (nuclear fraction immunoblot)” value in assay [8] is given as “blocked”. Also, the “percentage of cells in G0/G1” value in [10] (anti-NRR3 10 μg/ml, FIG. 9A-9F) is on record as ~83%; in [10] (FIG. 5A-5D) it was “about 87%”; in [11] (setting [17]), “about 67%”; in assay [11] (FIG. 4A-4D, control cells about 33-34%), “about 78%”. The “apoptotic cell death (Annexin V/7-AAD double positive population)” value in [12] is recorded as “resistant”; in assay [13], “sensitive”; in assay [14], “increases apoptotic cell death”. For the same molecule, in assay [15], the “production of activated Notch3 (nuclear fraction immunoblot)” value is listed as “blocked”.

B1: A13: anti-Notch3 agonist antibody described in US 2008/0118520 A1 as 256A-13 (antibody, V domains shown)
VH: SQVQLQQSGAELAKPGTSVKMACKASGYTFTTHWMNWVKQRPGQGLEWIGTINPSNDFTDCNQKFKDKAILTADKSSSTAYMQLSSLTSEDSAIYYCASGLTARAWFAYWGQGTLVTVSAA
VL: RATISCRASQSVTTSNYSYMHWFQQKPGQPPKLLIKYASNLDSGVPARFSGSGSGTDFTLNIHPVEEEDTATFYCQHSWEIPYTFGGGTNLEIKRADAAPTV
Regarding B1, the “activated Notch3 band after agonist antibody treatment” value in assay [16] is given as “faint but detectable band”.
